Measured values: ChEMBL document CHEMBL5518207, “Structure Guided Discovery of Novel Pan Metallo-β-Lactamase Inhibitors with Improved Gram-Negative Bacterial Cell Penetration” (J Med Chem, 2024)

Tests used:
Pseudomonas aeruginosa [1] = assay: Potentiation of imipenem induced antibacterial activity against isogenic efflux deleted mutant Pseudomonas aeruginosa MB9799 harbouring IMP incubated for 18 to 22 hrs imipenem and beta lactamase inhibitor by spectrophotometer based analysis; format: functional; conditions: time 18-22 hrs
[2] = Inhibition of GST tagged NDM-1 (unknown origin) expressed in Escherichia coli BL21 Star (DE3) competent cells using CCF2-FA as substrate incubated for 2 hrs by fluorescence based analysis
[3] = Inhibition of GST tagged IMP-1 (unknown origin) expressed in Escherichia coli BL21 Star (DE3) competent cells using CCF2-FA as substrate incubated for 2 hrs by fluorescence based analysis
Klebsiella pneumoniae = assay: Potentiation of imipenem induced antibacterial activity against Klebsiella pneumoniae IHMA599644 harbouring VIM-1 incubated for 18 to 22 hrs imipenem by spectrophotometer based analysis; format: functional; conditions: time 18-22 hrs
Escherichia coli = assay: Potentiation of imipenem induced antibacterial activity against Escherichia coli CLB30005 harbouring NDM-1 incubated for 18 to 22 hrs in presence of imipenem by spectrophotometer based analysis; format: functional; conditions: time 18-22 hrs
[4] = Inhibition of GST tagged VIM-1 (unknown origin) expressed in Escherichia coli BL21 Star (DE3) competent cells using CCF2-FA as substrate incubated for 2 hrs by fluorescence based analysis
Serratia marcescens = assay: Potentiation of imipenem induced antibacterial activity against Serratia marcescens CL5741 harbouring IMP-1 incubated for 18 to 22 hrs imipenem by spectrophotometer based analysis; format: functional; conditions: time 18-22 hrs
Pseudomonas aeruginosa [5] = assay: Potentiation of imipenem induced antibacterial activity against isogenic efflux wild type Pseudomonas aeruginosa MB9798 harbouring IMP incubated for 18 to 22 hrs imipenem and beta lactamase inhibitor by spectrophotometer based analysis; format: functional; conditions: time 18-22 hrs
Pseudomonas aeruginosa [6] = assay: Efflux ratio of MITC95 for potentiation of imipenem induced antibacterial activity against isogenic efflux wild type Pseudomonas aeruginosa MB9798 harbouring IMP to MITC95 for potentiation of imipenem induced antibacterial activity against isogenic efflux deleted mutant Pseudomonas aeruginosa MB9799 harbouring IMP; format: functional
[7] = MRT in rat at 1 mg/kg, iv measured after 24 hrs by HPLC-MS analysis; format: ADME, organism-based; conditions: in vivo
[8] = Volume of distribution at steady state in Beagle dog at 1 mg/kg, iv measured after 24 hrs by HPLC-MS analysis; format: ADME, organism-based, Canis lupus familiaris; conditions: in vivo, read-out: Vdss
[9] = AUC in rat at 1 mg/kg, iv measured after 24 hrs by HPLC-MS analysis; format: ADME, organism-based; conditions: in vivo
[10] = Unbound fraction in rat plasma at 1 mg/kg, iv measured after 24 hrs by HPLC-MS analysis; format: ADME, organism-based
[11] = MRT in Beagle dog at 1 mg/kg, iv measured after 24 hrs by HPLC-MS analysis; format: ADME, organism-based, Canis lupus familiaris; conditions: in vivo
[12] = Toxicity in Beagle dog assessed as severe adverse effect at 1 mg/kg, iv measured after 24 hrs by HPLC-MS analysis; format: organism-based, Canis lupus familiaris; conditions: in vivo
[13] = Cmax in rat at 1 mg/kg, iv measured after 24 hrs by HPLC-MS analysis; format: ADME, organism-based; conditions: in vivo
[14] = Unbound fraction in Beagle dog plasma at 1 mg/kg, iv measured after 24 hrs by HPLC-MS analysis; format: ADME, organism-based, Canis lupus familiaris
[15] = Clearance in rat at 1 mg/kg, iv measured after 24 hrs by HPLC-MS analysis; format: ADME, organism-based; conditions: in vivo
[16] = Cmax in Beagle dog at 1 mg/kg, iv measured after 24 hrs by HPLC-MS analysis; format: ADME, organism-based, Canis lupus familiaris; conditions: in vivo
[17] = Volume of distribution at steady state in rat at 1 mg/kg, iv measured after 24 hrs by HPLC-MS analysis; format: ADME, organism-based; conditions: in vivo, read-out: Vdss
[18] = AUC in Beagle dog at 1 mg/kg, iv measured after 24 hrs by HPLC-MS analysis; format: ADME, organism-based, Canis lupus familiaris; conditions: in vivo
[19] = Clearance in Beagle dog at 1 mg/kg, iv measured after 24 hrs by HPLC-MS analysis; format: ADME, organism-based, Canis lupus familiaris; conditions: in vivo
[20] = Inhibition of GST tagged VIM-2 (unknown origin) expressed in Escherichia coli BL21 Star (DE3) competent cells using CCF2-FA as substrate incubated for 2 hrs by fluorescence based analysis

SMILES	MITC95 (Pseudomonas aeruginosa [1]) [µM]	IC50 [2] [nM]	IC50 [3] [nM]	MITC95 (Klebsiella pneumoniae) [µM]	MITC95 (Escherichia coli) [µM]	IC50 [4] [nM]	MITC95 (Serratia marcescens) [µM]	MITC95 (Pseudomonas aeruginosa [5]) [µM]	Ratio (Pseudomonas aeruginosa [6])	also measured
NCCCc1ccc(-c2cccc3sc(N)nc23)c(-c2nn[nH]n2)c1S(N)(=O)=O	0.8	0.8	12	1.6	0.8	1.8	1.6	12.5	16	–
N=C(N)NCc1ccc(-c2ccc(C(F)(F)F)c(S(N)(=O)=O)c2-c2nn[nH]n2)cc1	0.39	3.9	3.4	0.8	0.3	0.4	0.06	35.4	90	–
NS(=O)(=O)c1cccc(-c2ccc(C3CCNCC3)cc2)c1-c1nn[nH]n1	1.56	5	34	38	3	19	9	200	128	–
NC1CCC(N2CCC(c3ccc(-c4ccc(C(F)(F)F)c(S(N)(=O)=O)c4-c4nn[nH]n4)cc3)CC2)CC1 (configuration not stated)	0.78	6.4	1.8	50	1.6	11	3.1	3.1	4	–
N=C(N)N[C@H]1CC[C@H](c2ccc(C(F)(F)F)c(S(N)(=O)=O)c2-c2nn[nH]n2)CC1	0.78	17.5	25.5	1.2	1.2	0.7	0.4	200	256	–
NS(=O)(=O)c1c(Cl)ccc(-c2ccc(C3CCNCC3)cc2)c1-c1nn[nH]n1	0.39	6	9	1.6	0.8	3	0.4	50	128	–
Cc1ccc(-c2ccc(C3CCNCC3)cc2)c(-c2nn[nH]n2)c1S(N)(=O)=O	–	31	72	25	3	28	6	–	–	–
NS(=O)(=O)c1c(C(F)(F)F)ccc([C@H]2CC[C@H](N)CC2)c1-c1nnn[nH]1	0.78	13.5	39.4	0.8	0.4	0.7	0.8	200	256	MRT [7]: 0.87 h; Vd [8]: 0.31 L/kg; AUC at 24 h [9]: 5 µM·h; fraction unbound at 24 h [10]: 0.78; MRT [11]: 2.03 h; Activity [12]: Non-Toxic; Cmax [13]: 12.7 µM; fraction unbound at 24 h [14]: 0.76; clearance [15]: 8.7 mL/min/kg; Cmax [16]: 15 µM; Vd [17]: 0.45 L/kg; AUC at 24 h [18]: 16.7 µM·h; clearance [19]: 2.6 mL/min/kg
Cc1ccc(-c2cccc(S(N)(=O)=O)c2-c2nnn[nH]2)cc1	–	3.7	64	127	1.5	57	14	–	–	–
NS(=O)(=O)c1c(Br)ccc(-c2ccc(C3CCNCC3)cc2)c1-c1nn[nH]n1	–	11	10	1.6	0.4	3	0.2	–	–	–
Nc1ccc2ccc(-c3ccc(C(F)(F)F)c(S(N)(=O)=O)c3-c3nn[nH]n3)cc2n1	0.39	1.1	1.5	3.1	0.8	0.2	3.1	100	256	–
NS(=O)(=O)c1c(C(F)(F)F)ccc(-c2ccc(C3CCNCC3)cc2)c1-c1nn[nH]n1	0.78	0.9	1.2	1.9	0.7	0.3	0.2	50	64	–
NC1(c2ccc(-c3ccc(C(F)(F)F)c(S(N)(=O)=O)c3-c3nn[nH]n3)cc2)CCNCC1	0.39	9.3	12.8	0.9	0.4	3	0.3	25	64	–
Nc1nc2cccc(-c3ccc(C(F)(F)F)c(S(N)(=O)=O)c3-c3nn[nH]n3)c2s1	1.56	0.04	0.8	6.3	1.6	0.1	6.3	50	32	–
Nc1ccc(-c2ccc(C(F)(F)F)c(S(N)(=O)=O)c2-c2nn[nH]n2)cn1	1.56	2.7	6.9	4.8	0.2	1.3	0.4	200	128	IC50 [20]: 3.1 nM
Nc1ccc2cccc(-c3ccc(C(F)(F)F)c(S(N)(=O)=O)c3-c3nn[nH]n3)c2n1	0.78	0.1	0.8	3.1	1.6	0.4	3.1	12.5	16	–
Nc1nc2ccc(-c3ccc(C(F)(F)F)c(S(N)(=O)=O)c3-c3nn[nH]n3)cc2s1	1.56	0.8	2.5	12.5	3.1	0.3	3.1	200	128	–
Nc1nc2c(-c3ccc(C(F)(F)F)c(S(N)(=O)=O)c3-c3nn[nH]n3)cccc2s1	0.78	0.2	1	3.1	3.1	0.4	1.6	6.3	8	IC50 [20]: 0.1 nM
Nc1nc2c(-c3ccc(CC4CCNCC4)c(S(N)(=O)=O)c3-c3nn[nH]n3)cccc2s1	1.6	0.7	19	1.6	0.8	2.2	3.1	18	11	IC50 [20]: 2.1 nM
NS(=O)(=O)c1c(C(F)(F)F)ccc(-c2ccc(NS(=O)(=O)C3CC3)cc2)c1-c1nn[nH]n1	0.78	0.3	0.2	12.5	6.3	0.08	3.1	50	64	–
